This is an account of results in patent publication US5837684A, “Peptides” (Nycomed Imaging AS, priority 1995, dated 1998).

Assay [1] addresses binary complex of TF/FVIIa (Homo sapiens, UniProt P00742). Briefly: lipidated TF assay (chromogenic assay measuring the FXa generated by TF/FVIIa). The assay is classed as biochemical. As to conditions: for IC50: FVIIa 5 pM, FX 20 nM, TF 5 pM, CaCl2 5 mM, 15 min preincubation at ambient temperature, FXa substrate S2765, read-out: IC50: concentration of peptide inhibiting the rate of FX activation by 50%; for IC values (statement in words): lipidated TF assay, summary of Table 1. Here is the method: The inhibitory capacity of the peptides was measured by a so-called lipidated TF assay which is a chromogenic assay measuring the FXa generated by the binary complex of TF/FVIIa. FVIIa (5 pM final concentration) and FX (20 nM) were combined in the presence of different concentrations of peptide and incubated for 15 min at ambient temperature. TF (5 pM) and CaCl2 (5 mM) were added to initiate the reaction. Reactions were quenched with EDTA and the FXa activity was measured in an amidolytic assay, using the chromogenic FXa substrate S2765 (trade name). Data from these studies with this assay are shown in FIG. 1, and Table 1 hereinafter gives the corresponding IC values. Data are plotted as the percentage of the rate of FXa formation determined without peptide versus the concentration of the following peptides: hu#154-163 (SEQ. ID. NO. 1) (.circle-solid.), mu#158-167 (SEQ. ID. NO. 2) (x) and rb#152-161 (SEQ. ID. NO. 3) (Δ).

In assay [2] the target is TF/FVIIa complex (FX activation) (Homo sapiens, UniProt P00742). Briefly: Dixon plot analysis of the inhibitory mechanism of FXa formation. The assay is classed as biochemical. The note with it: Dixon plots; three FX concentrations or three TF concentrations in excess of FVIIa. Here is the method: Different concentrations of peptide were mixed with FVIIa and three different concentrations of FX and, after addition of TF, the rate of FXa formation was determined. In another experiment, different concentrations of peptide were mixed with FVIIa and three different concentrations of TF, in excess of FVIIa. After addition of FX, the rate of FXa formation was determined. Results were plotted according to Dixon, the inverse of the rate of FXa formation versus peptide concentration. Peptide mu#158-167 (SEQ. ID. No. 2), produced linear regression lines, which intercepted on the abscissa (different FX concentrations) or above the abscissa (different TF concentrations).
Sequence of TF/FVIIa complex (FX activation) (P00742 41-179 limits assumed): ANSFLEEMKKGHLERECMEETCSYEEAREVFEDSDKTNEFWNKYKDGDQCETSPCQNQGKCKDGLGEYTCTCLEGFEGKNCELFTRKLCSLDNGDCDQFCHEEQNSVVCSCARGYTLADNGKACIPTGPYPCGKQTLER
Sequence of TF/FVIIa complex (FX activation) (P00742 235-488 limits assumed): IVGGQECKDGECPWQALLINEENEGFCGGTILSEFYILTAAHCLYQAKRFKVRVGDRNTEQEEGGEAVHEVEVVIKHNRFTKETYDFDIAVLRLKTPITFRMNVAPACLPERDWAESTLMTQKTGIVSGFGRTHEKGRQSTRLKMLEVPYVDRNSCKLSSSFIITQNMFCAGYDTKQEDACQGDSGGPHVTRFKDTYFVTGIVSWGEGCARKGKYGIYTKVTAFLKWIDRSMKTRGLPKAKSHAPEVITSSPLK

Sequence of binary complex of TF/FVIIa (P00742 41-179 limits assumed): as the sequence (P00742 41-179 limits assumed) above
Sequence of binary complex of TF/FVIIa (P00742 235-488 limits assumed): as the sequence (P00742 235-488 limits assumed) above

As for “H-TLYYWKSSSS-OH [hu#154-163, H--Thr--Leu--Tyr--Tyr--Trp--Lys--Ser--Ser--Ser--Ser--OH]”, in assay [1], the IC50 came out at 100 µM.

For the substance “H--Thr--Leu--Tyr--Tyr--Trp--Arg--Ala--Ser--Ser--Thr--OH (H-TLYYWRASST-OH) [rb#152-161, 10-mer of rabbit TF residues 152-161]”, in assay [1], the IC50 amounted to 14 µM and the “IC values (statement in words)” value is recorded as “very low μm range”.

Consider “H-IITYRKGSST-OH [mu#158-167, H--Ile--Ile--Thr--Tyr--Arg--Lys--Gly--Ser--Ser--Thr--OH]”, for which, in assay [1], the IC50 came out at 21 µM and the “IC values (statement in words)” value is listed as “very low μm range”. Also, in assay [2], the “inhibitory mechanism of FXa formation” value was “competes with TF or FVIIa/TF complex for interaction with FX”.
